Experiments:
[1] = Solubility (general statement); format: physicochemical; conditions: aqueous
[2] = Human pharmacokinetic study, Example 5 Arm I (single dose, replicated crossover); format: in vivo
Experimental: (§1) A Phase 1, non-fasting, open-label, two-arm, four-period, randomized, crossover study was conducted to compare and characterize the pharmacokinetics of (i) Triple Tablet when co-administered with Single Tablet, and (ii) Formulation C5-12 as discussed below. Part 1 was a single dose, two-treatment, randomized, four period, two sequence replicated crossover study with 88 subjects. Doses in the four periods were separated by at least 10 days. Part 2 was a multiple-dose, two-treatment, two period, randomized crossover study with 66 subjects. Dosing in each period was 14 days and doses in the two periods were separated by at least 10 days.
(§2) Adult male and female subjects in general good health were selected to participate in the study according to the selection criteria. Subjects meeting the selection criteria were randomly assigned to one of the sequences of Regimens A and B (four sequences for Arm I and two sequences for Arm II) as shown below in Table 5-A.
(§3) Study drug was administered as provided below in Table 5-B.
(§4) Each study regimen was taken orally with approximately 240 mL of water approximately 30 minutes after the start of standardized breakfast. Study regimens were administered orally in the morning on Study Day 1 of each period. Serial blood samples for pharmacokinetic analysis were collected 72 hours after dosing in each period.
Tables 5-C, 5-D, 5-E, and 5-F below report the Arm I pharmacokinetic data for Formulation C5-12 (separately reported for each of Compounds 1, 2, 3, and 4). Table 5-G presents the results of a relative bioavailability and 90% confidence interval analysis of the pharmacokinetic data for Formulation C5-12 relative to the reference regimen. The data presented in Tables 5-C through 5-G are preliminary data and are subject to database lock and final data verification by the statistician.

[3] = Human pharmacokinetic study, Example 4 Arm III (14-day multiple dose, steady state); format: in vivo
[4] = Human pharmacokinetic study, Example 5 Arm II (multiple dose, crossover); format: in vivo; conditions: Example 5 Arm II; for AUC: read-out: AUC24, geometric mean; for concentration at 24 h: read-out: C24, geometric mean; for Cmax: read-out: Cmax, geometric mean
Experimental: as §1, §2, §3, §4

[5] = Human pharmacokinetic study, Example 4 Arm II (single dose, crossover); format: in vivo; conditions: both sexes, human, oral, Example 4 Arm II, single dose, non-fasting, N = 13; for half-life / AUC(0-t) / AUC(0-inf) / Tmax: blood; for AUC(0-t): read-out: AUCt, geometric mean; for AUC(0-inf): read-out: AUC∞, geometric mean; for Tmax: read-out: Tmax; for concentration at 24 h / Cmax: in vivo; for concentration at 24 h: read-out: C24, geometric mean; for Cmax: read-out: Cmax, geometric mean
Experimental: Formulation C5-12 and a second formulation were tested in Arm II of the study. Adult male and female subjects (N=30 for combined Arm I and Arm II studies) in general good health were selected to participate in the study according to the selection criteria. Subjects meeting the selection criteria were randomly assigned to one of the Regimen sequences as shown below in Table 4-A.
Study drug was administered as provided below in Table 4-B.
as §4, with “each period. For Regimen A the evening dose of the Single Tablet was taken orally with approximately 240 mL of water approximately 30 minutes after the start of the evening snack. Serial blood” for “each period. Serial blood”
The data presented in Tables 4-C through 4-G are preliminary data and are subject to database lock and final data verification.

[6] = Sink Conditions dissolution testing of Formulation C5-12; format: physicochemical; conditions: N = 6
Experimental: The release profiles of Formulation C5-12 of Example 1 were evaluated in a Sink Conditions dissolution study. The study was conducted in 900 mL of dissolution medium using a standard USP dissolution Apparatus 2 (paddle) operating at 100 RPM at 37±0.5° C. The dissolution medium was a 0.05 M sodium phosphate buffer pH 6.8 with 15 mM cTAB as a surfactant.

[7] = Formulation C5-12 relative to the reference regimen
[8] = Formulation C5-12, Day 14 versus Day 1
[9] = human, in vivo, oral, 3 Formulation C5-12 tablets daily, three Formulation C5-12 tablets daily for 14 days, non-fasting, Day 14, N = 14
[10] = multiple dose 14 days, non-fasting, Regimen B (reference regimen): two Triple Tablets + one Single Tablet morning, one Single Tablet evening, N = 63
[11] = both sexes, human, blood, oral, 3 film-coated Formulation C5-12 tablets daily, multiple dose 14 days, non-fasting, Regimen A (C5-12): three film-coated Formulation C5-12 tablets daily, N = 63
[12] = both sexes, human, blood, oral, multiple dose 14 days, non-fasting, Regimen B (reference regimen): two Triple Tablets + one Single Tablet morning, one Single Tablet evening, N = 63
[13] = 3 Formulation C5-12 tablets, Regimen E (C5-12): three Formulation C5-12 tablets in the morning
[14] = Regimen A (reference regimen): two Triple Tablets + one Single Tablet morning, one Single Tablet evening

For `Cc1cnc(C(=O)N[C@H]2CCCCC/C=C\[C@@H]3C[C@@]3(C(=O)NS(=O)(=O)C3CC3)NC(=O)[C@@H]3C[C@@H](Oc4nc5ccccc5c5ccccc45)CN3C2=O)cn1` [Compound 1, (2R,6S,13aS,14aR,16aS,Z)-N-(cyclopropylsulfonyl)-6-(5-methylpyrazine-2-carboxamido)-5,16-dioxo-2-(phenanthridin-6-yloxy)-1,2,3,5,6,7,8,9,10,11,13a,14,14a,15,16,16a-hexadecahydrocyclopropa[e]pyrrolo[1,2-a][1,4]diazacyclopentadecine-14a-carboxamide], the Solubility [1] was “low solubility”, the “Cmax lower than Cmax for the reference regimen” value [2, 7] was 30% and the Cmax ([2]; both sexes, human, blood, oral, 3 film-coated Formulation C5-12 tablets, single dose, non-fasting, Regimen A (C5-12): three film-coated Formulation C5-12 tablets, N = 172, read-out: Cmax, geometric mean) was 618 ng/mL. The AUC(0-t) ([2]; both sexes, human, in vivo, oral, 3 film-coated Formulation C5-12 tablets, single dose, non-fasting, Regimen A (C5-12): three film-coated Formulation C5-12 tablets, N = 172, read-out: AUCt, geometric mean) was 4460 ng·h/mL, the AUC(0-inf) ([2]; both sexes, human, in vivo, oral, 3 film-coated Formulation C5-12 tablets, single dose, non-fasting, Regimen A (C5-12): three film-coated Formulation C5-12 tablets, N = 172, read-out: AUC∞, geometric mean) was 4490 ng·h/mL and the Tmax ([2]; both sexes, human, in vivo, oral, 3 film-coated Formulation C5-12 tablets, single dose, non-fasting, Regimen A (C5-12): three film-coated Formulation C5-12 tablets, N = 172, read-out: Tmax, first value (geometric mean)) was 5 h. For the same molecule, the half-life ([2]; both sexes, human, in vivo, oral, single dose, non-fasting, Regimen B (reference regimen): two Triple Tablets + one Single Tablet morning, one Single Tablet evening, N = 171) was 6.02 h, the AUC(0-t) ([2]; both sexes, human, in vivo, oral, single dose, non-fasting, Regimen B (reference regimen): two Triple Tablets + one Single Tablet morning, one Single Tablet evening, N = 171, read-out: AUCt, geometric mean) was 5470 ng·h/mL and the AUC(0-inf) ([2]; both sexes, human, in vivo, oral, single dose, non-fasting, Regimen B (reference regimen): two Triple Tablets + one Single Tablet morning, one Single Tablet evening, N = 171, read-out: AUC∞, geometric mean) was 5490 ng·h/mL. The Tmax ([2]; both sexes, human, in vivo, oral, single dose, non-fasting, Regimen B (reference regimen): two Triple Tablets + one Single Tablet morning, one Single Tablet evening, N = 171, read-out: Tmax, first value (geometric mean)) was 5 h, the t1/2 ([2]; single dose, non-fasting, Regimen A (C5-12): three film-coated Formulation C5-12 tablets, N = 172) was 6.15 h and the “Cmax, geometric mean” value ([2]; single dose, non-fasting, Regimen B (reference regimen): two Triple Tablets + one Single Tablet morning, one Single Tablet evening, N = 171) was 935 ng/mL. For the same molecule, the “AUC24, RATIO” value [3, 8] was 2.28, the “C24, RATIO” value [3, 8] was 1.00 and the “Cmax, RATIO” value [3, 8] was 2.52. It also gave a Tmax ([3]; human, in vivo, oral, 3 Formulation C5-12 tablets daily, three Formulation C5-12 tablets daily for 14 days, non-fasting, Day 1, N = 14) of 6.7 h, an AUC ([3]; human, in vivo, oral, 3 Formulation C5-12 tablets daily, three Formulation C5-12 tablets daily for 14 days, non-fasting, Day 1, N = 14, read-out: AUC24, geometric mean) of 4640 ng·h/mL and a concentration at 24 h ([3]; human, in vivo, oral, 3 Formulation C5-12 tablets daily, three Formulation C5-12 tablets daily for 14 days, non-fasting, Day 1, N = 14, read-out: C24, geometric mean) of 33.7 ng/mL. It also gave a Cmax ([3]; human, in vivo, oral, 3 Formulation C5-12 tablets daily, three Formulation C5-12 tablets daily for 14 days, non-fasting, Day 1, N = 14, read-out: Cmax, geometric mean) of 651 ng/mL, a Tmax [3, 9] of 5.1 h and a half-life [3, 9] of 4.6 h. For the same molecule, the AUC ([3]; human, in vivo, oral, 3 Formulation C5-12 tablets daily, three Formulation C5-12 tablets daily for 14 days, non-fasting, Day 14, N = 14, read-out: AUC24, geometric mean) was 10600 ng·h/mL, the concentration at 24 h ([3]; human, in vivo, oral, 3 Formulation C5-12 tablets daily, three Formulation C5-12 tablets daily for 14 days, non-fasting, Day 14, N = 14, read-out: C24, geometric mean) was 33.7 ng/mL and the Cmax ([3]; human, in vivo, oral, 3 Formulation C5-12 tablets daily, three Formulation C5-12 tablets daily for 14 days, non-fasting, Day 14, N = 14, read-out: Cmax, geometric mean) was 1640 ng/mL. For the same molecule, the β ([3]; three Formulation C5-12 tablets daily for 14 days, non-fasting, Day 14, N = 14) was 0.151 h⁻¹, the “β, geometric mean” value ([4]; multiple dose 14 days, non-fasting, Regimen A (C5-12): three film-coated Formulation C5-12 tablets daily, N = 63) was 0.129 h⁻¹ and the “Tmax, first value (geometric mean)” value [4, 10] was 4.0 h. The “β, geometric mean” value [4, 10] was 0.128 h⁻¹, the “Exposures (C24,ss and AUC24,ss) versus the reference regimen” value ([4]; Formulation C5-12, point estimate and 90% confidence interval for the GMR within 0.80-1.25) was “bioequivalent” and the “Cmax,ss lower than Cmax,ss for the reference regimen” value [4, 7] was 27%. For the same molecule, the half-life [4, 11] was 5.2 h, the AUC [4, 11] was 8900 ng·h/mL and the concentration at 24 h [4, 11] was 34.6 ng/mL. It also gave a Cmax [4, 11] of 1500 ng/mL, a Tmax ([4]; both sexes, human, blood, oral, 3 film-coated Formulation C5-12 tablets daily, multiple dose 14 days, non-fasting, Regimen A (C5-12): three film-coated Formulation C5-12 tablets daily, N = 63, read-out: Tmax, first value (geometric mean)) of 5 h and a half-life [4, 12] of 5.3 h. The AUC [4, 12] was 9240 ng·h/mL, the concentration at 24 h [4, 12] was 30.4 ng/mL and the Cmax [4, 12] was 1950 ng/mL. It also gave a bioavailability at 24 h ([4]; both sexes, human, blood, oral, Regimen A (C5-12) vs. B (reference regimen), read-out: Relative bioavailability, C24, point estimate) of 106%, a half-life [5, 13] of 5.1 h and an AUC(0-t) [5, 13] of 4310 ng·h/mL. The AUC(0-inf) [5, 13] was 4330 ng·h/mL, the Tmax [5, 13] was 5.7 h and the half-life [5, 14] was 5.2 h. For the same molecule, the AUC(0-t) [5, 14] was 4670 ng·h/mL, the AUC(0-inf) [5, 14] was 4690 ng·h/mL and the Tmax [5, 14] was 4.8 h. The concentration at 24 h [5, 13] was 24.5 ng/mL, the Cmax [5, 13] was 647 ng/mL and the concentration at 24 h [5, 14] was 24.3 ng/mL. For the same molecule, the Cmax [5, 14] was 900 ng/mL, the “% Released” value ([6]; 1 hour, 900 mL 0.05 M sodium phosphate buffer pH 6.8, 15 mM cTAB, USP Apparatus 2, 100 RPM, 37 °C) was 54% and the “% Released” value ([6]; 4 hours, pH 6.8 buffer, 15 mM cTAB) was 98%. For the same molecule, the “% Released” value ([6]; 6 hours, pH 6.8 buffer, 15 mM cTAB) was 99%, the “% Released” value ([6]; 8 hours, pH 6.8 buffer, 15 mM cTAB) was 102% and the “% Released” value ([6]; 12 hours, pH 6.8 buffer, 15 mM cTAB) was 102%. The “% Released” value ([6]; 16 hours, pH 6.8 buffer, 15 mM cTAB) was 101%.

Source: US10105365B2, “Solid antiviral dosage forms” (AbbVie Inc., priority 2014, dated 2018)
